Experimental data reported in patent US6211170A, “Azetidinone derivatives for the treatment of HCMV infections” (Boehringer Ingelheim (Canada) Ltd., priority 1998, dated 2001).
pEC50, pIC50: −log10 of the molar value.

Columns and labels:
[1] = Cytotoxicity, tetrazolium salt (MTT) metabolic assay; format: cell-based; settings: cytotoxic effects, read-out: TC50 (the source's name)
Procedure: Cytotoxic effects noted as TC50 in the following tables were determined according to the tetrazolium salt (MTT) metabolic assay, F. Denizot and F. Lang, J. Immun. Meth., 1986, 89, 271.

[2] = target: T1, HCMV NO protease (Human cytomegalovirus, UniProt P16753); assay: HCMV NO Protease Assay (fluorogenic substrate cleavage); format: biochemical; settings: HCMV NO protease 100 nM, substrate 5 μM, pH 8, 2.5 h at 30°
T1 construct: HCMV NO protease
T1 sequence (P16753 1-256): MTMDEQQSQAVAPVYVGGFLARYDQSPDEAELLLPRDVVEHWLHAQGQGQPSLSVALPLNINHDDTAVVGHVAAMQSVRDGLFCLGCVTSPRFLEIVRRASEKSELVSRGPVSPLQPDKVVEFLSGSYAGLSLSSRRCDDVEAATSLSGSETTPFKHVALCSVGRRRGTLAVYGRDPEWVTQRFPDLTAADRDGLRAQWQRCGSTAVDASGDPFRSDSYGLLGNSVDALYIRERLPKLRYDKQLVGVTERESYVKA
Procedure: This particular assay determines the ability of a test compound to inhibit the activity (IC50) of HCMV protease. More specifically, in the assay described herein, the inhibitory activity of the test compound is evaluated on the basis of its ability to interfere with the HCMV NO protease cleavage of a fluorogenic peptide substrate which in turn is based on the maturation cleavage site of the enzyme.
1. HCMV NO Protease Assay
Material & Methods: Fluorescence measurements were recorded on a Perkin-Elmer LS-50B spectrofluorimeter equipped with a plate reader accessory. UV measurements were recorded on a Thermomax® microplate reader from Molecular Devices Corporation, Menlo Park, Calif., USA.
HCMV NO protease was assayed with an internally quenched fluorogenic substrate based on the maturation cleavage site (Abz-[…](3-NO2)R--OH, kcat /KM =260 M^-1 s^-1). The fluorescence increase upon cleavage of the Ala-Ser amide bond was monitored using excitation λ=312 nm (slit 2.5 nm) and emission λ=415 nm (slit 5 nm). A protocol adaptable to a 96-well plate format was designed for the determination of IC50 values of inhibitors.
After this period, enzymatic hydrolysis of the fluorogenic substrate in the absence of inhibitor led to about a 30% conversion. Quenching was not required before fluorescence measurement since the total scanning time by the plate reader accessory was brief relative to the duration of the reaction. The aqueous incubation buffer contained 50 mM tris(hydroxymethyl)aminomethane.HCl pH 8, 0.5M Na2 SO4, 50 mM NaCl, 0.1 mM EDTA, 1 mM tris(2-carboxyethyl)phosphine.HCl, 3% v/v DMSO and 0.05% w/v casein. The final concentrations of HCMV NO protease (expressed in terms of total monomer concentration) and substrate were 100 nM and 5 μM respectively. IC50 values were obtained through fitting of the inhibition curve to a competitive inhibition model using SAS NLIN procedure. The mode of inhibition was determined by measurements of the initial rates (in cuvettes) at various substrate concentrations in the buffer as described above. The IC50 values listed in the following tables were obtained according to this assay.

[3] = test system: HCMV (strain AD169, ATCC VR-538); assay: Plaque Reduction Assay (PRA) in HCMV-infected Hs-68 cells; format: cell-based, human cytomegalovirus (HCMV); settings: Human betaherpesvirus 5, Hs68, 192 h; plaque reduction, HCMV strain AD169, Hs-68 cells, 8 days; read-out: EC50
Procedure: B. Plaque Reduction Assay (PRA):
Hs-68 cells (ATCC # CRL 1635) were seeded in 12-well plates at 83,000 cells/well in 1 mL of DMEM medium (Gibco Canada Inc.) supplemented with 10% fetal bovine serum (FBS, Gibco Canada Inc.). The plates were incubated for 3 days at 37° to allow the cells to reach 80-90% confluency prior to the assay.
The medium was removed from the cells by aspiration. The cells were then infected with approximately 50 PFU of HCMV (strain AD169, ATCC VR-538) in DMEM medium supplemented with 5% inactivated FBS (assay medium). (DMEM medium is commercially available and has been described by R. Dulbecco et al., Virology 1959, 8, 396.) The virus was allowed to adsorb to cells for 2 h at 37°. Following viral adsorption, the medium was removed from the wells by aspiration. The cells were then incubated with or without 1 mL of appropriate concentrations of test reagent in assay medium. Occasionally, test compounds were added 24 h post-infection. After 4 days of incubation at 37°, the medium was exchanged with fresh medium containing test compound and 4 days later the cells were fixed with 1% aqueous formaldehyde and stained with a 2% violet solution in 20% ethanol in water. Microscopic plaques were counted using a stereomicroscope. Drug effects were calculated as a percent reduction in the number of plaques in the presence of each drug concentration compared to the number observed in the absence of drug. Ganciclovir was used as a positive control in all experiments.

CC[C@@H](NC(=O)N1C(=O)C[C@@H]1COc1ccccn1)c1ccccc1 [Entry 101]
CC50 [1]: 151 µM
pIC50 [2]: 5.08
pEC50 [3]: 4.26

CC[C@@H](NC(=O)N1C(=O)[C@@H](C)[C@@H]1COc1ccccc1)c1ccccc1 [Entry 102]
CC50 [1]: > 250 µM
pIC50 [2]: 5.57
pEC50 [3]: < 3.60

CC[C@@H](NC(=O)N1C(=O)C[C@@H]1CSc1ccccn1)c1ccccc1 [Entry 103]
CC50 [1]: > 250 µM
pIC50 [2]: 5.40
pEC50 [3]: 3.82

CC[C@@H](NC(=O)N1C(=O)C[C@@H]1CSc1ncccn1)c1ccccc1 [Entry 104, 2-oxo-4(R)-(pyrimidin-2-ylsulfanylmethyl)azetidine-1-carboxylic acid (1(R)-phenylpropyl)amide]
CC50 [1]: > 209 µM
pIC50 [2]: 5.55
pEC50 [3]: 3.92

CC[C@@H](NC(=O)N1C(=O)C[C@@H]1CSc1nc(C)cc(C)n1)c1ccccc1 [Entry 105]
CC50 [1]: > 250 µM
pIC50 [2]: 5.34
pEC50 [3]: 4.06

CC[C@@H](NC(=O)N1C(=O)C[C@@H]1CSc1nc2ccccc2s1)c1ccccc1 [Entry 106]
CC50 [1]: > 250 µM
pIC50 [2]: 5.48
pEC50 [3]: < 3.60

CC[C@@H](NC(=O)N1C(=O)C[C@@H]1CSc1ccncc1)c1ccccc1 [Entry 107]
CC50 [1]: > 233 µM
pIC50 [2]: 5.70
pEC50 [3]: 4.04

CC[C@@H](NC(=O)N1C(=O)[C@@H](C)[C@@H]1CSc1ccccn1)c1ccccc1 [Entry 108]
CC50 [1]: > 250 µM
pIC50 [2]: 5.92
pEC50 [3]: 3.74

CC[C@@H](NC(=O)N1C(=O)[C@@H](C)[C@@H]1CSc1nc2ccccc2s1)c1ccccc1 [Entry 109]
CC50 [1]: > 250 µM
pIC50 [2]: 5.92
pEC50 [3]: 3.80

CC[C@@H](NC(=O)N1C(=O)[C@@H](C)[C@@H]1CSC(C)C)c1ccccc1 [Entry 110]
pIC50 [2]: 5.25

CC[C@@H](NC(=O)N1C(=O)[C@@H](C)[C@@H]1CSc1ncccn1)c1ccccc1 [Entry 111]
CC50 [1]: > 250 µM
pIC50 [2]: 6.19
pEC50 [3]: 3.96

CC[C@@H](NC(=O)N1C(=O)[C@@H](C)[C@@H]1CSc1nc2ccccc2o1)c1ccccc1 [Entry 112]
CC50 [1]: > 250 µM
pIC50 [2]: 6.03
pEC50 [3]: 3.85

CC[C@@H](NC(=O)N1C(=O)[C@@H](C)[C@@H]1CSc1ccccc1)c1ccccc1 [Entry 113]
pIC50 [2]: 5.80

CC[C@@H](NC(=O)N1C(=O)[C@@H](C)[C@@H]1CSC1CCCCC1)c1ccccc1 [Entry 114]
CC50 [1]: > 250 µM
pIC50 [2]: 5.52
pEC50 [3]: < 3.60

CC[C@@H](NC(=O)N1C(=O)[C@@H](C)[C@@H]1CSc1ccoc1C)c1ccccc1 [Entry 115]
CC50 [1]: > 250 µM
pIC50 [2]: 5.38
pEC50 [3]: 4.07

CC[C@@H](NC(=O)N1C(=O)[C@@H](C)[C@@H]1CSc1nccn1C)c1ccccc1 [Entry 116]
CC50 [1]: > 250 µM
pIC50 [2]: 5.72
pEC50 [3]: 3.89

CC[C@@H](NC(=O)N1C(=O)[C@@H](C)[C@@H]1CSCC(C)C)c1ccccc1 [Entry 117]
CC50 [1]: > 250 µM
pIC50 [2]: 5.46
pEC50 [3]: 3.96

CC[C@@H](NC(=O)N1C(=O)[C@@H](C)[C@@H]1CSc1ccncc1)c1ccccc1 [Entry 118]
CC50 [1]: 199 µM
pIC50 [2]: 5.80
pEC50 [3]: 4.26

CC[C@@H](NC(=O)N1C(=O)[C@@H](C)[C@@H]1CSc1nnnn1C)c1ccccc1 [Entry 119]
CC50 [1]: > 250 µM
pIC50 [2]: 5.85
pEC50 [3]: 4.10

CCSC[C@H]1[C@H](C)C(=O)N1C(=O)N[C@H](CC)c1ccccc1 [Entry 120]
pIC50 [2]: 5.40

CC[C@@H](NC(=O)N1C(=O)[C@@H](C)[C@@H]1CSC1CCCC1)c1ccccc1 [Entry 121]
CC50 [1]: > 250 µM
pIC50 [2]: 5.37
pEC50 [3]: 3.82

CC[C@@H](NC(=O)N1C(=O)[C@@H](C)[C@@H]1CSc1ccc(OC)cc1)c1ccccc1 [Entry 122]
CC50 [1]: > 250 µM
pIC50 [2]: 5.32
pEC50 [3]: < 3.60

CC[C@@H](NC(=O)N1C(=O)[C@@H](C)[C@@H]1CSc1nccc(C)n1)c1ccccc1 [Entry 123]
CC50 [1]: > 250 µM
pIC50 [2]: 6.01
pEC50 [3]: 3.82

CC[C@@H](NC(=O)N1C(=O)C[C@@H]1CSc1nccc(C)n1)c1ccccc1 [Entry 124]
CC50 [1]: > 250 µM
pIC50 [2]: 5.40
pEC50 [3]: < 3.60

CC[C@@H](NC(=O)N1C(=O)[C@@H](C)[C@@H]1CSc1nc2ncccc2s1)c1ccccc1 [Entry 125]
CC50 [1]: > 250 µM
pIC50 [2]: 5.96
pEC50 [3]: 3.85

CC[C@@H](NC(=O)N1C(=O)[C@@H](C)[C@@H]1CSc1nc(C)cc(C)n1)c1ccccc1 [Entry 126]
CC50 [1]: > 63 µM
pIC50 [2]: 5.55
pEC50 [3]: 4.60

CC[C@@H](NC(=O)N1C(=O)C[C@@H]1CSC)c1ccccc1 [Entry 127, 4(R)-(methylsulfanyl)methyl-2-oxoazetidine-1-carboxylic acid (1(R)-phenylpropyl)amide]
CC50 [1]: > 250 µM
pIC50 [2]: 5.42
pEC50 [3]: < 3.60

CC[C@@H](NC(=O)N1C(=O)C[C@@H]1CSc1ccccc1)c1ccccc1 [Entry 129]
CC50 [1]: > 250 µM
pIC50 [2]: 5.60
pEC50 [3]: < 3.60

CC[C@@H](NC(=O)N1C(=O)C[C@@H]1COc1cccc(CCC(=O)O)c1)c1ccccc1 [Entry 135]
pIC50 [2]: 7.00

CC[C@@H](NC(=O)N1C(=O)C[C@@H]1COc1cccc(CC(=O)O)c1)c1ccccc1 [Entry 136]
pIC50 [2]: 7.00

O=C1C[C@H](C[S+]([O-])c2ccccc2)N1C(=O)NCc1ccccc1 (stereo partly drawn) [Entry 202, 4(R) -benzenesulfinylmethyl-2-oxoazetidine-1-carboxylic acid benzylamide]
pIC50 [2]: 4.89

O=C1C[C@H](CS(=O)(=O)c2ccccc2)N1C(=O)NCc1ccccc1 [Entry 203, 2(R)-benzenesulfonylmethyl-4-oxoazetidine-1-carboxylic acid benzyl amide]
pIC50 [2]: 4.62

CC[C@@H](NC(=O)N1C(=O)C[C@@H]1CN1CCOCC1)c1ccccc1 [Entry 205]
pIC50 [2]: 5.03

CC(=O)OC[C@H]1CC(=O)N1C(=O)NCc1ccncc1 [Entry 207]
pIC50 [2]: 4.34

CC[C@@H](NC(=O)N1C(=O)C[C@@H]1CN(CC)CC)c1ccccc1 [Entry 210]
pIC50 [2]: 4.32

Cn1nnnc1SC[C@H]1CC(=O)N1C(=O)NC1CCc2ccccc21 (some centres unmarked) [Entry 211]
CC50 [1]: 188 µM
pEC50 [3]: 3.85

CN(Cc1ccco1)C(=O)N1C(=O)C[C@@H]1CSc1ncccn1 [Entry 303]
pIC50 [2]: 4.77

CN(C(=O)N1C(=O)C[C@@H]1CSc1ncccn1)c1ccccc1 [Entry 306]
pIC50 [2]: 4.66

COC(=O)c1ccc(CN(C)C(=O)N2C(=O)C[C@@H]2CSc2nccn2C)cc1 [Entry 308]
pIC50 [2]: 4.66

COC(=O)c1ccc(CN(C)C(=O)N2C(=O)C[C@@H]2CSc2nc3ccccc3o2)cc1 [Entry 310]
pIC50 [2]: 5.48

CN(CC1CCCCO1)C(=O)N1C(=O)C[C@@H]1CSc1ncccn1 (some centres unmarked) [Entry 315]
pIC50 [2]: 4.55

CN(Cc1ccc([N+](=O)[O-])cc1)C(=O)N1C(=O)C[C@@H]1CSc1ncccn1 [Entry 322]
CC50 [1]: > 118 µM
pEC50 [3]: < 3.93

O=C(OCc1ccccc1)C1CCCN1C(=O)N1C(=O)C[C@@H]1CSc1ncccn1 (some centres unmarked) [Entry 401]
pIC50 [2]: 4.68

O=C1C[C@H](CSc2ncccn2)N1C(=O)N1CCC[C@H]1c1ccccc1 [Entry 402, 1-(2(S)-phenyl-pyrrolidine-1-carbonyl)-4-(pyrimidin-2-ylsulfanylmethyl)azetidin-2-one]
pIC50 [2]: 4.47

Cn1nnnc1SC[C@H]1CC(=O)N1C(=O)N1CCCC1c1ccccc1[N+](=O)[O-] (some centres unmarked) [Entry 408]
CC50 [1]: > 133 µM
pEC50 [3]: 4.00
